What was measured:
[1] = tested on: human colon cancer HCT116 cells; assay: MTT Assay; assay type: cell-based; conditions: HCT-116, 72 hours, Table 21
Experimental: Compounds at various concentrations were added to human colon cancer HCT116 cells plated in 96-well plates. Cells were incubated for 72 hours at 37° C. in 5% CO2 incubator. MTT (3-[4,5-dimethylthiazol-2-yl]-2,5 diphenyl tetrazolium bromide, Sigma) was added at a final concentration of 0.5 mg/ml and incubated with the cells for 4 hours before an equal volume of solubilization buffer (50% N,N-dimethylformamide, 20% SDS, pH 4.7) was added onto cultured cells. After overnight incubation, solubilized dye was quantified by colorimetric reading at […] using a reference at 630 nM. OD values were converted to cell numbers according to a standard growth curve of the relevant cell line. The concentration which reduces cell numbers to 50% of those of DMSO-treated cells is determined as MTT IC50.

[2] = molecular target: HDAC-1 (Homo sapiens, UniProt Q13547); assay: Inhibition of Histone Deacetylase Enzymatic (HDAC-1) Activity; assay type: biochemical; conditions: Table 21
Experimental: The following protocol was used to assay the compounds of the invention.
The mixture was pre-incubated for 5 minutes at room temperature. The reaction was started by bringing the temperature to 37° C. and adding 15 μl substrate. Total reaction volume was 50 μl.

[3] = Log D (comparison with previously disclosed compounds); assay type: physicochemical; conditions: pH 7.4

HDAC-1, sequence (Q13547 whole entry): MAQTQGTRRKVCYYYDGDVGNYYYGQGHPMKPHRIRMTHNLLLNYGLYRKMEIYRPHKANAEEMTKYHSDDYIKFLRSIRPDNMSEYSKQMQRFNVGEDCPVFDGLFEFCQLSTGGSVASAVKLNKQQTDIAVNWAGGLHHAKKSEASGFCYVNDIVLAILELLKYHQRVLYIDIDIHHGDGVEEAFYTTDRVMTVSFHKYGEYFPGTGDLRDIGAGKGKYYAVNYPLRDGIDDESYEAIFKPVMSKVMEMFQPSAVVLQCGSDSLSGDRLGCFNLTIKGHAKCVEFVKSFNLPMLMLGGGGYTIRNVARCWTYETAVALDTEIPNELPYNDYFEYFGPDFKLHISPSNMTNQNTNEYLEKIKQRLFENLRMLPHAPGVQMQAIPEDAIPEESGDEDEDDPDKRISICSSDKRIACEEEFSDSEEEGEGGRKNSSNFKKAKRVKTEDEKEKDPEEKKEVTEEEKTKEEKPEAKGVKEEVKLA

Compound | IC50 [1] | IC50 [2] | logD [3]
CN(C)[C@H]1CCN(Cc2ccc(C(=O)Nc3cc(-c4cccs4)ccc3N)cc2)C1 [compound 81, (S)-N-(2-amino-5-(thiophen-2-yl)phenyl)-4-((3-(dimethylamino)-pyrrolidin-1-yl)methyl)-benzamide] | < 1000 nM | < 1000 nM | 2.11
Nc1ccc(-c2cccs2)cc1NC(=O)c1ccc(CN2CC[C@H](O)C2)cc1 [compound 82, (S)-N-(2-amino-5-(thiophen-2-yl)phenyl)-4-((3-hydroxy-pyrrolidin-1-yl)methyl)-benzamide] | < 1000 nM | < 1000 nM | 2.6
Nc1ccc(-c2cccs2)cc1NC(=O)c1ccc(CN2CC[C@@H](O)C2)cc1 [compound 83, (R)-N-(2-amino-5-(thiophen-2-yl)phenyl)-4-((3-hydroxy-pyrrolidin-1-yl)methyl)-benzamide] | 1000 to 5000 nM | < 1000 nM | 2.6
CC(=O)N[C@@H]1CCN(Cc2ccc(C(=O)Nc3cc(-c4cccs4)ccc3N)cc2)C1 [compound 84, (R)-4-((3-acetamido-pyrrolidin-1-yl)methyl)-N-(2-amino-5-(thiophen-2-yl)phenyl)-benzamide] | < 1000 nM | < 1000 nM | 2.15
Nc1ccc(-c2cccs2)cc1NC(=O)c1ccc(CN2CCN(c3ccncc3)CC2)cc1 [compound 85, N-(2-amino-5-(thiophen-2-yl)phenyl)-4-((4-(pyridin-4-yl)piperazin-1-yl)methyl)-benzamide] | < 1000 nM | < 1000 nM | 3.32
Nc1ccc(-c2cccs2)cc1NC(=O)c1ccc(CN2CCC[C@H]2CN2CCCC2)cc1 [compound 86, (S)-N-(2-amino-5-(thiophen-2-yl)phenyl)-4-((2-(pyrrolidin-1-ylmethyl)-pyrrolidin-1-yl)methyl)-benzamide] | < 1000 nM | < 1000 nM | 0.86
CC(=O)N[C@H]1CCN(Cc2ccc(C(=O)Nc3cc(-c4cccs4)ccc3N)cc2)C1 [compound 87, (S)-4-((3-acetamido-pyrrolidin-1-yl)methyl)-N-(2-amino-5-(thiophen-2-yl)phenyl)-benzamide] | < 1000 nM | < 1000 nM | 2.15
Nc1ccc(-c2cccs2)cc1NC(=O)c1ccc(CN2CCN(c3ccccn3)CC2)cc1 [compound 89, N-(2-amino-5-(thiophen-2-yl)phenyl)-4-((4-(pyridin-2-yl)piperazin-1-yl)methyl)-benzamide] | < 1000 nM | < 1000 nM | 3.38
CCN(CC)CCSc1ccc(C(=O)Nc2cc(-c3cccs3)ccc2N)cc1 [compound 107, N-(2-amino-5-(thiophen-2-yl)phenyl)-4-(2-(diethyl-amino)-ethylthio)-benzamide] |  | < 1000 nM | 2.58
Nc1ccc(-c2cccs2)cc1NC(=O)N1CCN(Cc2ccc3c(c2)OCO3)CC1 [compound 316, N-(2-Amino-5-(thiophen-2-yl)phenyl)-4-(benzo[d][1,3]dioxol-5-ylmethyl)piperazine-1-carboxamide] |  | < 1000 nM | 2.32
Nc1ccc(-c2ccccc2)cc1NC(=O)C1CCN(S(=O)(=O)c2ccc([N+](=O)[O-])cc2)CC1 [compound 320, N-(4-Aminobiphenyl-3-yl)-1-(4-nitrophenylsulfonyl)piperidine-4-carboxamide] |  | < 1000 nM | 3.21

The next lines start with the values.

IC50 [1] | IC50 [2] | logD [3] | Compound
< 1000 nM | < 1000 nM | 2.11 | CN(C)[C@@H]1CCN(Cc2ccc(C(=O)Nc3cc(-c4cccs4)ccc3N)cc2)C1 [compound 9, (R)—N-(2-Amino-5-(thiophen-2-yl)phenyl)-4-((3-(dimethylamino)pyrrolidin-1-yl)methyl)benzamide]
< 1000 nM | < 1000 nM | 3.1 | COCCN(CCOC)Cc1ccc(C(=O)Nc2cc(-c3cccs3)ccc2N)cc1 [compound 10, N-(2-amino-5-(thiophen-2-yl)phenyl)-4-((bis(2-methoxyethyl)amino)methyl)benzamide]
< 1000 nM | < 1000 nM | 3.03 | Nc1ccc(-c2cccs2)cc1NC(=O)c1ccc(CN2CCC[C@@H](O)C2)cc1 [compound 11, (R)-N-(2-amino-5-(thiophen-2-yl)phenyl)-4-((3-hydroxypiperidin-1-yl)methyl)benzamide]
1000 to 5000 nM | < 1000 nM | 3.86 | Nc1ccc(-c2cccs2)cc1NC(=O)c1ccc(CN2CCCCC2)cc1 [compound 12, N-(2-amino-5-(thiophen-2-yl)phenyl)-4-(piperidin-1-ylmethyl)benzamide]
< 1000 nM | < 1000 nM | 2.22 | COCCN1CCN(Cc2ccc(C(=O)Nc3cc(-c4cccs4)ccc3N)cc2)CC1 [compound 13, N-(2-amino-5-(thiophen-2-yl)phenyl)-4-((4-(2-methoxyethyl)piperazin-1-yl)methyl)benzamide]
< 1000 nM | < 1000 nM | 3.2 | CCN(C)Cc1ccc(C(=O)Nc2cc(-c3cccs3)ccc2N)cc1 [compound 14, N-(2-amino-5-(thiophen-2-yl)phenyl)-4-((ethyl(methyl)amino)methyl)benzamide]
< 1000 nM | < 1000 nM | 2.15 | CC(C)N1CCN(Cc2ccc(C(=O)Nc3cc(-c4cccs4)ccc3N)cc2)CC1 [compound 15, N-(2-amino-5-(thiophen-2-yl)phenyl)-4-((4-isopropylpiperazin-1-yl)methyl)benzamide]
< 1000 nM | < 1000 nM | 3.3 | Nc1ccc(-c2cccs2)cc1NC(=O)c1ccc(CN2CCN(C3CCCC3)CC2)cc1 [compound 16, N-(2-amino-5-(thiophen-2-yl)phenyl)-4-((4-cyclopentylpiperazin-1-yl)methyl)benzamide]
< 1000 nM | < 1000 nM | 1.64 | CN(C)CCN(C)Cc1ccc(C(=O)Nc2cc(-c3cccs3)ccc2N)cc1 [compound 18, N-(2-amino-5-(thiophen-2-yl)phenyl)-4-(((2-(dimethylamino)ethyl)(methyl)amino)methyl)benzamide]
< 1000 nM | < 1000 nM | 2.59 | Nc1ccc(-c2cccs2)cc1NC(=O)c1ccc(CN2CCC(N3CCOCC3)CC2)cc1 [compound 77, N-(2-amino-5-(thiophen-2-yl)phenyl)-4-((4-morpholino-piperidin-1-yl)-methyl)-benzamide]
< 1000 nM | < 1000 nM | 2.29 | CN1CCN(Cc2ccc(C(=O)Nc3cc(-c4cccs4)ccc3N)cc2)CC1 [compound 78, N-(2-amino-5-(thiophen-2-yl)phenyl)-4-((4-methylpiperazin-1-yl)methyl)-benzamide]
< 1000 nM | < 1000 nM | 3.19 | CCN(CC)Cc1ccc(C(=O)Nc2cc(-c3cccs3)ccc2N)cc1 [compound 79, N-(2-amino-5-(thiophen-2-yl)phenyl)-4-((diethylamino)-methyl)benzamide]
< 1000 nM | < 1000 nM | 1.54 | Nc1ccc(-c2cccs2)cc1NC(=O)c1ccc(CN2CCN(CCn3ccnc3)CC2)cc1 [compound 80, 4-((4-(2-(1H-imidazol-1-yl)ethyl)-piperazin-1-yl)-methyl)-N-(2-amino-5-(thiophen-2-yl)phenyl)-benzamide]
